Results published in the Kinase Knowledgebase extract (Sharma et al. 2016).
pIC50: −log10 of the molar value.

What follows are compounds tested against PIK3CD (Human) (UniProt O00329) (assay: Assessment of PIK3CD Kinase Activity (Scintillation Proximity Assay)).
Sequence of PIK3CD (Human) (O00329 whole entry, looked up): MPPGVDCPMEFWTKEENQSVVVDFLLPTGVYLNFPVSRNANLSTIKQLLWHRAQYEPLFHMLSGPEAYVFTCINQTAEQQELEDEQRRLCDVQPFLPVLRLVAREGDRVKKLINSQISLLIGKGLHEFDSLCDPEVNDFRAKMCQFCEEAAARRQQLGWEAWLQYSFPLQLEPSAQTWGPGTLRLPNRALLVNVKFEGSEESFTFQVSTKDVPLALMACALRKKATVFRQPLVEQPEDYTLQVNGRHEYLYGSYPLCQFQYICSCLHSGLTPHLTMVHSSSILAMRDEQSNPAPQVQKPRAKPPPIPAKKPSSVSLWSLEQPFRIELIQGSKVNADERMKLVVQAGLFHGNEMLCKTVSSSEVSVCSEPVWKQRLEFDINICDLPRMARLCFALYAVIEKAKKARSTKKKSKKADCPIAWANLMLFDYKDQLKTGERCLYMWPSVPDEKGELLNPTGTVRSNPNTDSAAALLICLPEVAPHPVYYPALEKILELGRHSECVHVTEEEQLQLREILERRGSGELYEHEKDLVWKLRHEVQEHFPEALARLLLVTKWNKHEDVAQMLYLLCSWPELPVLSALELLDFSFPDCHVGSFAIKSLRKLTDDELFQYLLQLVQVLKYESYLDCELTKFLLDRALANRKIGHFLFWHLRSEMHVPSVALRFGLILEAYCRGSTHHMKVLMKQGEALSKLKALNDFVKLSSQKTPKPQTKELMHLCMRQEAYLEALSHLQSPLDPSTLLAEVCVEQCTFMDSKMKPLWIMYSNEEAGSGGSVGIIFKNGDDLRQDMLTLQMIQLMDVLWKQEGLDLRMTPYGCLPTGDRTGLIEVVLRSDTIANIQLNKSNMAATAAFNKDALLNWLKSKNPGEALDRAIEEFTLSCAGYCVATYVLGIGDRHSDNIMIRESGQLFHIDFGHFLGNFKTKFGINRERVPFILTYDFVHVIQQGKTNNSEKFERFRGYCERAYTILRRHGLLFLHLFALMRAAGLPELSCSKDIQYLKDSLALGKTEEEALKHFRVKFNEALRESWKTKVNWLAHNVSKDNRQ
`CCNC(=O)c1c(C)c(Cl)cc(C(C)n2nc(-c3cnc4[nH]ccc4c3)c3c(N)ncnc32)c1OCC` (centres undefined) showed a pIC50 of no less than 8.00. `COc1c(C(C)n2nc(C(F)F)c3c(N)ncnc32)cc(C#N)c(F)c1C1CN(C[C@H](C)O)C1` (some centres undefined) showed a pIC50 of no less than 8.00. For `COc1c(C(C)n2nc(C)c3c(N)ncnc32)cc(Cl)c(C#N)c1C1CN(C(=O)OC(C)C)C1` (centres undefined), the pIC50 was no less than 8.00. For `CCOc1c(C(C)n2nc(C)c3c(N)ncnc32)cc(C)c(C#N)c1-c1ccc(C(=O)N(C)C)nc1` (centres undefined), the pIC50 was no less than 8.00. For `COc1c(C(C)n2nc(C)c3c(N)ncnc32)cc(Cl)c(C)c1-c1ccc(C(=O)N(C)C)c(F)c1` (centres undefined), the pIC50 was no less than 8.00. With `CCOc1c(C(C)n2nc(C)c3c(N)ncnc32)cc(Cl)c(C#N)c1-c1cncc(C(=O)NC)c1` (centres undefined) the pIC50 was no less than 8.00. `COc1c(C(C)n2nc(C)c3c(N)ncnc32)cc(Cl)c(C)c1-c1cncc(C(=O)N2CC(C#N)C2)c1` (centres undefined) gave a pIC50 of no less than 8.00. Compound `CCOc1c(C(C)n2nc(-c3cn[nH]c3)c3c(N)ncnc32)cc(Cl)c(C)c1-c1ccc(C(=O)N(C)C)nc1` (centres undefined) has a pIC50 of no less than 8.00. In the case of `COc1c(C(C)n2nc(C)c3c(N)ncnc32)cc(Cl)c(Cl)c1C1CN(C(C)C)C1` (centres undefined), the pIC50 was no less than 8.00. `COc1c(C(C)n2nc(C)c3c(N)ncnc32)cc(Cl)c(C#N)c1C1CN(C[C@@H](C)O)C1` (some centres undefined) showed a pIC50 of no less than 8.00. In the case of `COc1c(C(C)n2nc(C)c3c(N)ncnc32)cc(Cl)c(Cl)c1C1CN(C(C)=O)C1` (centres undefined), the pIC50 was no less than 8.00. Compound `COc1c(C(C)n2nc(C)c3c(N)ncnc32)cc(Cl)c(C#N)c1C1CN(C(C)C)C1` (centres undefined) has a pIC50 of no less than 8.00. Work on `COc1c(C(C)n2nc(C)c3c(N)ncnc32)cc(Cl)c(C)c1C1CN(C(C)=O)C1` (centres undefined) yielded a pIC50 of no less than 8.00. Work on `COc1c(C(C)n2nc(C)c3c(N)ncnc32)cc(Cl)c(C)c1C1CN([C@@H](C)C(O)N(C)C)C1` (some centres undefined) yielded a pIC50 of no less than 8.00. With `CCOc1c(C(C)n2nc(C)c3c(N)ncnc32)cc(C)c(C#N)c1C1CN(C(C)C)C1` (centres undefined) the pIC50 was no less than 8.00. In the case of `CCOc1c(C(C)n2nc(C)c3c(N)ncnc32)cc(Cl)c(C#N)c1-c1ccc(C2=[N+][N+]=C(C)O2)nc1` (centres undefined), the pIC50 was no less than 8.00. `CCOc1c(C(C)n2nc(C)c3c(N)ncnc32)cc(Cl)c(C)c1-c1ccc(C(=O)NC)nc1` (centres undefined) showed a pIC50 of no less than 8.00. In the case of `Cc1c(Cl)cc(C(C)n2nc(C)c3c(N)ncnc32)c(OCC(F)F)c1-c1ccc(C(=O)N(C)C)nc1` (centres undefined), the pIC50 was no less than 8.00. For `COc1c(C(C)n2nc(C)c3c(N)ncnc32)cc(Cl)c(C)c1C1CN(CC(O)C(F)(F)F)C1` (centres undefined), the pIC50 was no less than 8.00. Compound `COc1c(C(C)n2nc(C)c3c(N)ncnc32)cc(Cl)c(F)c1C1CN(C[C@@H](C)O)C1` (some centres undefined) has a pIC50 of no less than 8.00. For `COc1c(C(C)n2ccc(=O)c3c(N)ncnc32)cc(Cl)c(C)c1C1CN(C(C)C)C1` (centres undefined), the pIC50 was no less than 8.00. With `COc1c(C(C)n2nc(C)c3c(N)ncnc32)cc(Cl)c(C)c1C1CN([C@@H](C)CO)C1` (some centres undefined) the pIC50 was no less than 8.00. In the case of `CCOc1c(C(C)n2nc(CO)c3c(N)ncnc32)cc(Cl)c(C)c1-c1ccc(C(=O)N(C)C)nc1` (centres undefined), the pIC50 was no less than 8.00. Compound `COc1c(C(C)n2nc(C(F)F)c3c(N)ncnc32)cc(C#N)c(C)c1C1CN(CCO)C1` (centres undefined) has a pIC50 of no less than 8.00. `CNC(=O)N1CC(c2c(C#N)c(Cl)cc(C(C)n3nc(C)c4c(N)ncnc43)c2OC)C1` (centres undefined) gave a pIC50 of no less than 8.00. Work on `COc1c(C(C)n2nc(C)c3c(N)ncnc32)cc(Cl)c(C)c1C1CN(C(=O)c2cnn(C)c2)C1` (centres undefined) yielded a pIC50 of no less than 8.00. In the case of `COc1c(C(C)n2nc(C(F)F)c3c(N)ncnc32)cc(C#N)c(C)c1C1CN(C(C)=O)C1` (centres undefined), the pIC50 was no less than 8.00. Work on `CCOc1c(C(C)n2nc(-c3cccc(F)c3)c3c(N)ncnc32)cc(Cl)c(C)c1-c1ccc(C(=O)N(C)C)nc1` (centres undefined) yielded a pIC50 of no less than 8.00. Work on `CCNC(=O)c1c(C)c(Cl)cc(C(C)n2nc(-c3cn[nH]c3)c3c(N)ncnc32)c1OCC` (centres undefined) yielded a pIC50 of no less than 8.00. `CCOc1c(C(C)n2nc(C)c3c(N)ncnc32)cc(Cl)c(C#N)c1N1CC(OC)C1` (centres undefined) was tested, and the pIC50 was no less than 8.00. In the case of `COc1c(C(C)n2nc(C(F)F)c3c(N)ncnc32)cc(C#N)c(C)c1C1CN(CC(F)(F)F)C1` (centres undefined), the pIC50 was no less than 8.00. `CCOc1c(C(C)n2nc(-c3cc[nH]n3)c3c(N)ncnc32)cc(Cl)c(C)c1-c1ccc(C(=O)N(C)C)nc1` (centres undefined) was tested, and the pIC50 was no less than 8.00. `COc1c(C(C)n2nc(C)c3c(N)ncnc32)cc(Cl)c(Cl)c1C1CN(CC#N)C1` (centres undefined) was tested, and the pIC50 was no less than 8.00. For `COc1c(C(C)n2nc(C)c3c(N)ncnc32)cc(Cl)c(C#N)c1C1CN(CC(C)C)C1` (centres undefined), the pIC50 was no less than 8.00.
